Source: patent US20250228832A1, “METHODS FOR TREATING DISORDERS AMELIORATED BY MUSCARINIC RECEPTOR ACTIVATION” (KARUNA THERAPEUTICS, INC., priority 2022, published 2025)
Read-outs that look alike come from different tables or passages of the source.

Biological target: T1, human M2 receptor (Homo sapiens, UniProt P08172)
T1 sequence (P08172 1-466): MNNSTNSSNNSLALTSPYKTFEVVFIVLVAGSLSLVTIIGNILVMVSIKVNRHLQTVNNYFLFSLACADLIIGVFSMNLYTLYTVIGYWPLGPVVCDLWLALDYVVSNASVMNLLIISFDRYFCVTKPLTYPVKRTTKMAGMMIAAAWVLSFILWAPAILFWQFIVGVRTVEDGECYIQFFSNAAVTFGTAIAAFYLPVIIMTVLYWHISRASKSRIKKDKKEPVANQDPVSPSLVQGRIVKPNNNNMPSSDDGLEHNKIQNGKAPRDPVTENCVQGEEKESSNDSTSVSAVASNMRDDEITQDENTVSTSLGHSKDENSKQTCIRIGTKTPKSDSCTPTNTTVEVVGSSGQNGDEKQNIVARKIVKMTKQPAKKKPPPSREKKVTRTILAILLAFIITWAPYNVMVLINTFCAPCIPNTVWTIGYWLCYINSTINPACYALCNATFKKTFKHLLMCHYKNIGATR
Test: SPA GTP (GTPgS) binding curve shift assay, M2
Assay type: biochemical
Method: Membranes were prepared for GTPgS binding assays from CHO-K1 cells stably expressing human M2 or human M4 receptors. Cells were grown in 5-layer cell culture flasks. Cells were washed with 50 mL of PBS and then dissociated with 0.05% trypsin. Dissociated cells were then collected by centrifugation at 650×g for 8 min at 4° C. Pellets were rewashed in PBS by centrifugation and resuspended in 30 mL of 20 mM HEPES, 10 mM EDTA, pH 7.4. After sitting on ice for 30 min, membranes were collected by centrifugation at 50000×g for 15 min at 4° C., resuspended in 30 mL of 20 mM HEPES, 0.1 mM EDTA, pH 7.4, and collected again by centrifugation. Pellets were then washed twice by centrifugation in 30 mL of 20 mM HEPES, pH 7.4, and stored at −80° C. until the day of the assay. On the day of the assay, pellets were thawed on ice and resuspended in 1 mL of 20 mM HEPES, pH 7.4, 10 mM MgCl2, and 100 mM NaCl using Dounce homogenization.
According to Promega guidelines, membrane protein concentration was determined by BCA protein assay (Promega, Madison, WI).
On the day of the assay, serial dilutions of test PAM compounds were brought up in assay buffer (20 mM HEPES, 10 mM MgCl2; see Table 4 for NaCl concentrations) at four times the final assay concentration. […] of membrane homogenates (containing […] of membrane protein) were prepared in assay buffer supplemented with GDP at 4× final assay concentration (see Table 4 for GDP concentrations) and dispensed into 96 well polypropylene, U-bottom Greiner plates. Membrane plates were incubated for 10 min at room temperature with gentle shaking. Then, 25 μL of test compounds were added to assay plates. Plates were then incubated, with shaking, for an additional 10-15 min. Then, 25 μL of diluted agonists serially diluted in assay buffer at 4× final assay concentration was added to assay plates. Plates were then incubated, with shaking, for an additional 10-15 min. Next, […] of 0.4 nM ^35S-GTP (Perkin Elmer, Waltham, MA) in assay buffer was added to assay mixtures. The binding reaction was left on the shaker for 1 h at room temperature. Membranes in assay reactions were then transferred to GF/C filter plates (UniFilter, Perkin Elmer) and washed three times using FilterMate Harvester (Perkin Elmer) with cold assay buffer containing no GDP. Filter plates were then dried at 40° C. overnight, and […] of Beta Plate Scintillation liquid was added. Plates were top and bottom sealed before being read on the TopCount scintillation counter (Perkin Elmer, Waltham, MA).
Raw data for all assays was transmitted directly from plate readers into the Beacon database for processing. All assay plates contained positive and negative control wells for data normalization and scaling. […] All control wells contained DMSO at a final assay concentration that matched the test compound wells.
For GTPgS assays, the negative control wells were defined as 0% response. The highest response in a plate was scaled to 1, representing 100% response. Data from test compound wells was scaled to these controls and are reported as % control values. This was done to allow for subsequent GraphPad cooperativity analysis, setting the maximal response at no more than 1.

[1] = M2, Emraclidine concentration 0 nM
[2] = M2, Emraclidine concentration 41.2 nM, read-out: Emax
[3] = M2, Emraclidine concentration 123 nM, read-out: Emax
[4] = M2, Emraclidine concentration 370 nM
[5] = M2, Emraclidine concentration 1110 nM, read-out: Emax
[6] = M2, Emraclidine concentration 3330 nM, read-out: Emax
[7] = M2, Emraclidine concentration […]
[8] = M2, MK-4710 concentration 41.2 nM, read-out: Emax
[9] = M2, MK-4710 concentration 123 nM, read-out: Emax
[10] = M2, MK-4710 concentration 370 nM
[11] = M2, MK-4710 concentration 1110 nM, read-out: Emax
[12] = M2, MK-4710 concentration 3330 nM, read-out: Emax

Row | EC50 [1] [nM] | Emax [1] [%] | Emax [2] [%] | Emax [3] [%] | Emax at […] [4] [%] | Emax [5] [%] | Emax [6] [%] | Emax at […] [7] [%] | α (cooperativity, affinity shift) (M2, M4 PAM Emraclidine) | β (cooperativity, efficacy shift) (M2, M4 PAM Emraclidine) | τ (agonist pharmacology) (M2, M4 PAM Emraclidine) | α (cooperativity, affinity shift) (M2, M4 PAM MK-4710) | β (cooperativity, efficacy shift) (M2, M4 PAM MK-4710) | τ (agonist pharmacology) (M2, M4 PAM MK-4710) | Emax (M2, MK-4710 concentration 0 nM) [%] | Emax [8] [%] | Emax at […] [10] [%] | Emax [11] [%] | Emax [12] [%] | Emax at […] (M2, MK-4710 concentration […]) [%] | Compound | other results
1 | 35.7 | 39.8 | 52.6 | 52.2 | 50.1 | 67.5 | 75.1 | 48.7 | 1.0 | 1370.0 | 1.6 | 1.0 | 10.3 | 0.0 | 38.7 | 50.1 | 61.4 | 62.2 | 77.6 | 57 | CCCCCCCOc1nsnc1C1=CCCCN1C [KTX-593, 3-(heptyloxy)-4-(1-methyl-1,4,5,6-tetrahydropyridin-2-yl)-1,2,5-thiadiazole] | EC50 (M2, MK-4710 concentration 0 nM): 19.6 nM; Emax [9]: 50.2%
2 | 2100 | 34.0 | 57 | 51.8 | 48.6 | 51.4 | 69.6 | 43.8 | 1.0 | 21.1 | 0.0 | 1.0 | 53.4 | 0.0 | 39.6 | 38.2 | 39.3 | 49.5 | 68.2 | 42.1 | CC1OC2(CS1)CN1CCC2CC1 (stereo not shown) [cevimeline, Cevimeline, reference compound] | EC50 (M2, MK-4710 concentration 0 nM): 2260 nM; Emax [9]: 39%
3 | 18.5 | 35.6 | 57.9 | 51.1 | 52.6 | 65.9 | 79.2 | 44.8 | 1.0 | 18.1 | 0.1 | 1.0 | 5.0 | 0.1 | 45.1 | 53.2 | 59.1 | 70.6 | 78.7 | 60.6 | CCCCCOc1nsnc1C1=CCCCN1C [KTX-517, 3-(1-methyl-1,4,5,6-tetrahydropyridin-2-yl)-4-(pentyloxy)-1,2,5-thiadiazole] | EC50 (M2, MK-4710 concentration 0 nM): 14.3 nM; EC50 (M2, MK-4710 concentration 41.2 nM): 11.9 nM; EC50 (M2, MK-4710 concentration 123 nM): 14.8 nM; Emax [9]: 55.6%; EC50 [10]: 13.1 nM; EC50 (M2, MK-4710 concentration 1110 nM): 15.8 nM; EC50 (M2, MK-4710 concentration 3330 nM): 10.3 nM; EC50 (M2, MK-4710 concentration […]): 25.7 nM

Row | Compound | EC50 [1] [nM] | Emax [1] [%] | Emax [2] [%] | Emax [3] [%] | Emax at […] [4] [%] | Emax [5] [%] | Emax [6] [%] | Emax at […] [7] [%] | α (cooperativity, affinity shift) (M2, M4 PAM Emraclidine) | β (cooperativity, efficacy shift) (M2, M4 PAM Emraclidine) | τ (agonist pharmacology) (M2, M4 PAM Emraclidine) | α (cooperativity, affinity shift) (M2, M4 PAM MK-4710) | β (cooperativity, efficacy shift) (M2, M4 PAM MK-4710) | τ (agonist pharmacology) (M2, M4 PAM MK-4710) | Emax (M2, MK-4710 concentration 0 nM) [%] | Emax [8] [%] | Emax at […] [10] [%] | Emax [11] [%] | Emax [12] [%] | Emax at […] (M2, MK-4710 concentration […]) [%] | other results
4 | CCCCCCOc1nsnc1C1=CCCN(C)C1 [xanomeline, reference compound] | – | 36.2 | 48.2 | 49.8 | 41.5 | 59.6 | 64.1 | 41.7 | – | – | 0.0 | – | – | 0.0 | 55.6 | 65.3 | 55.5 | 74.1 | 75.7 | 60.1 | Emax: 74.7%
